Compound `COc1ccc(O)c(Cl)c1O` gave a melting point of 69 to 70 °C.

Turning to `COc1ccc(C#Cc2cccc(CN(O)C(C)=O)c2)cc1`, the melting point lay in the range of 124 to 126 °C.

With `O=C(Nc1ccc(Sc2c(O)c3c(Cl)cc(Cl)cc3[nH]c2=O)cc1)c1ccco1`, the melting point was 296 to 300 °C.

For `CCOC(=O)C=CNC(=O)Nc1ccc(Cl)c(C(=O)OCC)c1`, the melting point fell in the range of 116 to 117 °C.

Compound `O=Cc1nn(-c2ccc([N+](=O)[O-])cc2)c2c1CCCC2` came in with a melting point of 147 to 148 °C.

`O=C(CN1CCC(Cc2ccccc2)CC1)Nc1ccc([N+](=O)[O-])cc1` had a melting point of 126 to 128 °C.

Take `Cn1nc(C(F)(F)F)cc1Oc1cccc(-c2nc(C(F)(F)C(F)(F)F)no2)n1`: the melting point was 109 to 110 °C.

`O=C(O)C1=Cc2cc(C(F)F)ccc2OC1C(F)(F)F` (centres undefined): the melting point fell in the range of 135 to 136 °C.

The compound `C=CC(=O)N(CC)c1cn(-c2cccnc2)nc1Cl` returned a melting point of 67 to 68 °C.

As for `CCCNCCOc1ccc(NC(=O)c2n[nH]c3c2C(=O)CCC3)cn1`, the melting point turned out to be 120 °C.

Take `CC(C)c1[nH]c2ccccc2c1Sc1ccc(O)cc1`: the melting point stood at 116 °C.

In turn, `CCCc1nc2c(N)nc3cc(OCCC4CCN(C(=O)OC(C)(C)C)CC4)ccc3c2n1CC(C)C` had a melting point of 196 to 200 °C.

Regarding `Nc1ncc(-c2noc(-c3cnn4c(C(F)(F)F)cc(-c5ccc(Cl)c(Cl)c5)nc34)n2)cn1`, the melting point worked out at 300 °C.

In the case of `CON=C(C(=O)O)c1nc(NC=O)c(Cl)cc1Cl`, the melting point lay in the range of 164 to 165 °C.

On to `O=CNc1ccccc1Nc1ccc(C(=O)c2ccccc2)cc1`, for which the melting point lay within 122 to 124 °C.

The compound `COc1cc(C=CC(=O)N2CCN(c3nc(N)c4cc(OC)c(OC)cc4n3)CC2)cc(OC)c1` showed a melting point of 132 to 135 °C.

`Cn1cc(C(=O)c2sc(NC(=O)c3ccncc3)nc2-c2ccco2)ccc1=O` registered a melting point of 294 to 295 °C.

The compound `CCCC1=NN(c2ccc(C(N)=O)cc2)C(=O)C1=CNc1ccccc1CC` had a melting point of 170 °C.

With `Cc1ccc2nc([C@@H](C)NC(=O)OC(C)(C)C)sc2c1`, the melting point was in the range of 101 to 104 °C.

The compound `Cc1cc(C2(C(F)(F)F)ON=C(c3ccc(F)cc3)O2)ccc1N` (centres undefined) came in with a melting point of 78 to 83 °C.

With `COC(=O)c1cc(-c2ccc3occc3c2)n[nH]c1=O`, the melting point fell in the range of 222 to 225 °C.

The compound `CCc1c(C(F)(F)F)noc1NS(=O)(=O)c1cccc2ccccc12` had a melting point of 135 to 137 °C.

The compound `O=C(O)c1cc(OCc2ccccc2)cc(C(F)(F)F)c1` gave a melting point of 143 to 145 °C.

In the case of `CC1=C(C)N(c2c(Br)cc(C)cc2Br)C2=NCCN21`, the melting point fell in the range of 154 to 156 °C.

Turning to `N#CC(NCCCO)c1ccc(F)cc1` (centres undefined), the melting point was in the range of 69 to 70 °C.

Regarding `N#Cc1cn(C[C@@H]2CN(c3ccc(N4CCC5(CC4)OCCO5)c(F)c3)C(=O)O2)nn1`, the melting point was 158 to 160 °C.

Turning to `O=C1C(=Cc2ccc(Cl)cc2)C(c2ccc(Cl)cc2)Oc2ccc(O)cc21` (centres undefined), the melting point is 228 to 230 °C.

Regarding `CCCCC(=O)C(Cc1ccc(C(=O)OC)cc1)c1ccccc1` (centres undefined), the melting point worked out at 58 °C.

In turn, `CCOC(=O)c1ccc(-c2cnc3c(c2)N(Cc2ccccc2)C(=O)CN3)cc1` showed a melting point of 178 °C.

Consider `ON=c1ccccc2cnccc12`, for which the melting point lay in the range of 164 to 167 °C.

As for `COc1ccc2c(C)c(CCN3CCN(c4ccccc4OC)CC3)c(=O)oc2c1`, the melting point fell in the range of 129 to 130 °C.

`COC(=O)CCC1=C(C)C2=NC1(CCC(=O)OC)C(C)C1(CCC#N)NC(C)(C=C3C=CC(=N3)C=c3ccc([nH]3)=C2)C(CCC#N)=C1C` (centres undefined) gave a melting point of 201 to 205 °C.

`O=C(O)c1ccc(OCCOc2ccccc2)cc1`: the melting point was 198 to 199 °C.

`CSc1c(C(Cc2ccccc2)C(=O)O)ccc2c3ccccc3n(Cc3ccccc3)c12` (centres undefined) registered a melting point of 154 to 156 °C.

In turn, `CC(=O)Oc1cc([N+](=O)[O-])cc2c1OC(C)(C)C2` had a melting point of 142 to 143 °C.

On to `COc1ccc(-c2[nH]nc3c2C(=O)c2c(NC(=O)Cc4ccc(NC(=O)CN(C)C)cc4)cccc2-3)cc1`, for which the melting point is above 300 °C.

Compound `CCCCCCCCCCCCC1=C(OC)C(=O)c2ccccc2C1=O` registered a melting point of 61 to 63 °C.

Compound `C[C@H](c1ncnc(Sc2ccc(Cl)cc2)c1F)[C@@](O)(Cn1cncn1)c1ccc(F)cc1F` displayed a melting point of 158 to 160 °C.

`Cc1cc(-c2cccc([N+](=O)[O-])c2)c2ccccc2n1` yielded a melting point of 157 °C.

Regarding `CN1CCN(c2cccc3ccc(-c4cccc(NS(C)(=O)=O)c4)cc23)CC1`, the melting point was in the range of 100 to 101 °C.

Compound `C=C(C)CNC(=NC#N)Nc1cccnc1` returned a melting point of 140 to 141 °C.

As to `COc1ccc(CONC(=O)c2nc(-c3ccc(Cl)c(OC)c3F)cc(N)c2Cl)cc1`, the melting point was 142 to 145 °C.

Regarding `CN(C)C1CC2(C)C(=O)CCC2C2CCC3CC(O)CCC3(C)C21` (centres undefined), the melting point was in the range of 135 to 136 °C.

`COC(=O)C1CC(C(=O)OC)NC(=O)N1` (centres undefined) gave a melting point of 178 to 179 °C.

Take `O=S(=O)(Nc1c(F)cccc1F)c1nc2ncc(Cl)cn2n1`: the melting point was 224 to 226 °C.

In the case of `CSC(=NCc1cccnc1)NC#N`, the melting point is 152 to 154 °C.

Regarding `CC1(C)COc2cc3c(cc21)C1(CO3)C(=O)N(Cc2ccc(C(F)(F)F)o2)c2ccccc21` (centres undefined), the melting point is 155 to 160 °C.

Take `N#CCNC(=O)c1ccnc(Cl)c1`: the melting point lay within 131 to 132 °C.

In turn, `OCCCN1CCN(c2ccccc2)CC1` displayed a melting point of 72 to 73 °C.

`Cc1c(Cl)c(=O)n(-c2cc(C(=O)OC(C)C)c(Cl)cc2F)c(=O)n1C` gave a melting point of 150 to 153 °C.

As to `CN1C(=O)CC[C@]2(C)c3ccc(Sc4ccc(-c5ccccc5)nn4)cc3CC[C@@H]12`, the melting point is 199 to 200 °C.

Take `CC(C)Oc1cc(OC(C)C)c(C(=O)O)c(C(F)(F)F)n1`: the melting point lay within 147 to 150 °C.

In turn, `COC(=O)c1cccc2nc(OCC(F)(F)F)n(Cc3ccc(-c4ccccc4-c4nnn[nH]4)cc3)c12` showed a melting point of 210 to 212 °C.

The compound `CCc1c([N+](=O)[O-])c(C(N)=O)nn1C1CN(C(c2ccccc2)c2ccccc2)C1` gave a melting point of 254 to 257 °C.

Regarding `CCn1c(=O)c2c(nc(/C=C/c3cccc(C(C)=O)c3)n2C)n(CC)c1=O`, the melting point was in the range of 221 to 222 °C.

The compound `COCCNc1nc(C)c(C)c(N2CCc3ccccc3C2C)n1` (centres undefined) had a melting point of 64 to 67 °C.

The compound `N=C(N)NN=C1CCc2ccc(N)cc21` had a melting point above 280 °C.

`CNC(=S)C1(c2cccnc2)CCCCC1=CCO` (centres undefined): the melting point was 172 to 173 °C.

With `Cc1cc(C)c2nc(C)c(NC(=O)Nc3cccc(C(F)(F)F)c3)c(-c3ccccc3Cl)c2c1`, the melting point lay within 146 to 147 °C.

With `CCCCOc1ccc2cc(C(C)NC(N)=O)ccc2c1` (centres undefined), the melting point was in the range of 135 to 137 °C.

`CSc1[nH]c2cccc3c2c1CC1C3C=C(C)CN1C` (centres undefined) came in with a melting point of 148 to 150 °C.

The compound `O=C(O)c1cc([N+](=O)[O-])c(Nc2ccccc2)c(S(=O)(=O)Nc2ccccc2)c1` yielded a melting point of 249 to 250 °C.

`CN(C)C1CCc2c(c3ccccc3n2CC(=O)O)C1` (centres undefined) showed a melting point of 316 to 319 °C.

As for `CCOc1ccccc1-c1ccc2c(c1)C=C(C(=O)Nc1ccc(CN(C)C3CCOCC3)cc1)CCS2(=O)=O`, the melting point was 171 to 173 °C.

`COC(=O)CCCc1cc2cc(Cl)ccc2n1S(=O)(=O)c1ccc(N2CCOCC2)nc1`: the melting point was in the range of 130 to 132 °C.

Compound `CC(C)(C)OC(=O)N1CCCC1c1ccnc(-c2nc(=O)c3ccccc3s2)c1` (centres undefined) showed a melting point of 195 to 196 °C.

For `O=[N+]([O-])c1cc(Br)ccc1-c1ccc(Br)cc1[N+](=O)[O-]`, the melting point fell in the range of 143 to 146 °C.

On to `Cc1ccc(Cl)cc1C(=O)CO`, for which the melting point was in the range of 55 to 57 °C.

The compound `Cc1cn(C(C)(C)C(=O)N(C)C)nc1-c1ccc(Cl)c(Cl)c1` gave a melting point of 142 °C.

With `N#Cc1c(OCC(F)(F)F)nc(CCO)nc1N1CCc2ccccc2CC1`, the melting point lay within 114 to 116 °C.

`Cc1cc(=O)n(-c2cc3c(cc2F)sc(=O)n3CC(N)=O)c(=O)n1C` showed a melting point above 260 °C.

In the case of `Cc1cc(C)c2c(n1)-c1ccccc1C2=O`, the melting point was in the range of 102 to 104 °C.

The compound `Cc1cnc(C#N)c(C)c1[N+](=O)[O-]` gave a melting point of 66 to 71 °C.

The compound `COc1nccc(C)c1NC(=O)OC(C)(C)C` registered a melting point of 93 to 95 °C.

`CC(=O)SCC(C)C(=O)N(CC(=O)O)C1CCCCCC1` (centres undefined): the melting point lay in the range of 116 to 117 °C.

In turn, `CC(C)(C)OC(=O)N[C@@H](Cc1ccc(Cc2ccccc2)cc1)C(=O)O` showed a melting point of 103 to 107 °C.

With `O=C(O)C1(c2ccc(CN3CCN(c4ccc(F)cc4F)CC3)cc2)CC1`, the melting point lay in the range of 70 to 74 °C.

With `CCOC(=O)C(NC(=O)CNC(=O)OCc1ccccc1)C(=O)OCC`, the melting point fell in the range of 94.5 to 95.5 °C.

On to `O=c1nc(-c2cccc(CS(=O)Cc3ccccc3)n2)sc2ccccc12` (centres undefined), for which the melting point lay within 187 to 189 °C.

With `COc1ccc(CNc2nc(NCc3ccc(OC)cc3)c3[nH]nc(C(C)C)c3n2)cc1`, the melting point was in the range of 60 to 85 °C.

Turning to `O=C(NCCCC[C@H](NC(=O)OCc1ccccc1)C(=O)Nc1ccc(-c2ccc(C(=O)O)c(=O)[nH]2)cc1)OCc1ccccc1`, the melting point lay in the range of 199 to 200 °C.

`CC(C)n1c(C(F)(F)F)cnc1-c1ccc(O)cc1` returned a melting point of 249 to 250 °C.

For the compound `Cc1nn(-c2ccc(F)cc2)cc1C(=O)N(CC(=O)O)c1ccc(OCC(C)(C)C)c(C#N)c1`, the melting point amounted to 157 °C.

For `NC1CC2c3ccccc3Cc3ccccc3N2C1=O` (centres undefined), the melting point was in the range of 186 to 188 °C.

On to `CN(c1cnc(-c2ccccc2)c(-c2ccccc2)n1)C1CCc2c(OCC(=O)O)cccc21` (centres undefined), for which the melting point fell in the range of 182 to 184 °C.

With `CC(C)(O)c1nc(-c2ccc(-c3cnc4[nH]c(=O)n(CC5CCOCC5)c4n3)cc2)n[nH]1`, the melting point lay in the range of 249 to 253 °C.

The compound `CCc1cccc(-c2nc3ccccc3[nH]2)n1` showed a melting point of 161 to 162 °C.

In turn, `COc1cnc(CCl)nc1O` yielded a melting point of 87 °C.

`O=C(CCc1cnoc1-c1ccccc1)Nc1ccc2ncccc2c1` gave a melting point of 170 to 171 °C.
